Test results as given in patent US8569378B2, “p27 protein inducer” (Chugai Seiyaku Kabushiki Kaisha, priority 2007, dated 2013).
Structures can show the parent of a compound that is named as a salt.

Key:
TNF-α = test: Measurement of TNF-α production inhibitory activity in LPS-stimulated THP-1 cells; type: cell-based; details: Homo sapiens, overnight, TNF-α in supernatant by ELISA, Table 3
Experimental: TNF-α is an inflammatory cytokine. It plays an important role in the initiation of inflammation, particularly in rheumatism. The TNF-α production inhibitory activities of the compounds or salts listed in Table 3 below were measured as follows.
THP-1 human monocytic leukemia cells (ATCC) were suspended to a cell density of 5×10^5 cells/mL in RPMI 1640 medium supplemented with 5% inactivated fetal bovine serum, and this suspension was aliquoted into a 96-well round-bottomed tissue culture plate at 0.2 mL/well. A solution of the test substance in DMSO was added to the suspension to a final concentration of […] and the mixture was subjected to pretreatment at 37° C. for 60 minutes. After pretreatment, lipopolysaccharide (LPS) from E. coli 055:B5 was added to a final concentration of […] and the mixture was incubated overnight in a 37° C., 5% CO^2 incubator. Then, the culture supernatant was collected from each well, and the concentration of TNF-α in the supernatant was determined with a human TNF-α ELISA kit (catalog no. KHC3011, BIOSOURCE) according to the manufacturer's instructions. The test substance concentration (IC50) at which 50% inhibition was achieved was calculated from the measurement.

p27 protein = test: Quantification of p27 protein by ELISA (p27 protein-inducing activity, EC50); type: cell-based, human; details: NCI-H460 cells, 48 hours, p27 sandwich ELISA
Experimental: The p27 protein-inducing activities of the compounds or salts listed in Tables 1-1, 1-2 and 2 below were measured as follows.
Preparation of Cell Lysate:
NCI-H460 human non-small cell lung cancer cells (ATCC HTB-177) were plated in 6-well plates at 2×10^5 cells/well and incubated overnight. Then, the test substance was added to the medium to a final concentration of 10000 nmol/L, 3000 nmol/L, 100 nmol/L, 30 nmol/L, 10 nmol/L, 3 nmol/L, 1 nmol/L, 0.3 nmol/L, 0.1 nmol/L, 0.03 nmol/L or 0.01 nmol/L and the cells were incubated at 37° C. in 5% CO2 for 48 hours. 150 μL of Cell Lysis Buffer (catalog no. 9803, Cell Signaling) which had been diluted to 1-fold concentration (1 mM PMSF was added immediately before use) was added, and the mixture was allowed to stand on ice for 10 minutes. The Cell Lysis Buffer in which cells were lysed was collected together with cells with a scraper and transferred to a new tube. It was centrifuged at 15000 rpm for 10 minutes at 4° C. and the supernatant was then transferred to a new tube.
Quantification by Sandwich ELISA:
Anti-p27 monoclonal antibody (catalog no. 71-9600, Zymed) was diluted to 5 μg/mL in 50 mM carbonate coating buffer (0.4 g/L NaCO3, 0.73 g/L NaHCO3 and 0.04 g/L NaN3 in distilled water), and it was then added at 50 μL/well and allowed to stand overnight at 4° C. to bind the antibody. After washing three times with PBS, 200 μL of blocking solution (0.2% I-Block in PBS) was added to each well. After 1 hour of incubation at room temperature, washing with PBS-T (0.05% Tween 20 in PBS) was performed three times. The sample and recombinant p27 protein standard were serially diluted in Cell Lysis Buffer (catalog no. 9803, Cell Signaling) which had been diluted to 1-fold concentration (1 mM PMSF was added immediately before use), and it was then added at 100 μL/well. After 1 hour of incubation at room temperature, washing with 200 μL of PBS-T was performed three times. HRP-labeled anti-p27 antibody (product no. 610243, BD Transdution Laboratories) was diluted 1:2500 (i.e. to 0.1 μg/mL) in 0.2% I-Block/0.05% PBS-T, and it was then added at 100 μL/well. After 1 hour of incubation at room temperature, washing with 200 μL of PBS-T was performed three times. Chromogenic substrate solution (TMB One Solution, catalog no. G7431, Promega) was added at 100 μL/well and allowed to develop a color reaction at room temperature. After stopping the reaction with 50 μL of 1N H2SO4, the absorbance at 450 nm was measured.
Calculation of EC50 Values:
A standard response curve was generated by plotting the amount of p27 protein against the concentration of the test substance. The basal level of response was defined as 0%, while the plateau level where the induction of p27 protein had been maximized was defined as 100%. Finally, the test substance concentration at which 50% induction was achieved was calculated, and it was defined as EC50.

[1] = test system: type II collagen-induced arthritis; details: mouse, in vivo
Experimental: DBA/1JN mice (female, 8 weeks old, Charles River) were injected intradermally at the three sites of the base of the tail with 140 μL/mouse of a collagen gel prepared by mixing equal volumes of 0.3% aqueous bovine type II collagen solution (Collagen Technical Workshop) and complete Freund's adjuvant H37Ra (Difco). After 21 days, the mice were injected intradermally at the three sites of the back with 140 μL/mouse of a collagen gel prepared likewise. […] At every administration, the mice were treated at 0.04 mg/kg, 0.2 mg/kg, 1 mg/kg, 5 mg/kg or 25 mg/kg using 0.5% sodium carboxymethylcellulose as a vehicle. The mice treated with vehicle alone (i.e., the mice that were not treated with the test substance) were used as controls.
After the first collagen injection, arthritis score of each mouse was measured with time. The arthritis score was calculated by giving scores for both the toes and backs of all four paws of the mouse on the scale below and adding them together (the maximum possible total is 4 per paw and 16 per mouse).
Score 1: Moderate swelling

EC50 (p27 protein; Table 2)	Structure (SMILES)	IC50 (TNF-α)	EC50 (p27 protein; Table 1-2)	EC50 (p27 protein; Table 1-1)	further results
–	CNS(=O)(=O)Nc1cc(Cc2c(C)c3ccc(OC(=O)N(C)C)cc3oc2=O)ccn1 [Compound 1j-1-10-2, Dimethylcarbamic acid 4-methyl-3-{2-(methylaminosulfonyl)-aminopyridin-4-ylmethyl}-2-oxo-2H-1-benzopyran-7-yl ester]	10.3 nM	370 nM	–	–
417 nM	CNS(=O)(=O)Nc1cccc(Cc2c(C)c3cc(F)c(Oc4ncccn4)cc3oc2=O)c1F [Compound 1j-2-5-2, 3-{2-Fluoro-3-(methylaminosulfonyl)aminobenzyl}-4-methyl-7-(pyrimidin-2-yloxy)-6-fluoro-2-oxo-2H-1-benzopyran]	14.9 nM	–	–	–
1840 nM	Cc1c(Cc2cccc(NS(N)(=O)=O)c2F)c(=O)oc2cc(Oc3ncccn3)ccc12 [Compound 1j-2-4-1, 3-{2-Fluoro-3-(aminosulfonyl)aminobenzyl}-4-methyl-7-(pyrimidin-2-yloxy)-2-oxo-2H-1-benzopyran]	25.9 nM	–	–	–
–	CNS(=O)(=O)Nc1cc(Cc2c(C)c3cc(F)c(OC(=O)N(C)C)cc3oc2=O)ccn1 [Compound 1j-1-11-2, Dimethylcarbamic acid 4-methyl-3-{2-(methylaminosulfonyl)aminopyridin-4-ylmethyl}-6-fluoro-2-oxo-2H-1-benzopyran-7-yl ester]	5.19 nM	330 nM	–	–
–	CNS(=O)(=O)Nc1cccc(Cc2c(C)c3cc(Cl)c(OC(=O)N(C)C)cc3oc2=O)c1 [Compound 1j-1-3-2, Dimethylcarbamic acid 3-(3-(N-methylsulfamoyl)aminobenzyl)-6-chloro-4-methyl-2-oxo-2H-1-benzopyran-7-yl ester]	1.86 nM	–	54 nM	–
–	Cc1c(Cc2cccc(NS(N)(=O)=O)c2F)c(=O)oc2cc(Oc3nccs3)ccc12 [Compound 1j-3-4-1, 3-{2-Fluoro-3-(aminosulfonyl)aminobenzyl}-4-methyl-7-(thiazol-2-yloxy)-2-oxo-2H-1-benzopyran]	7.36 nM	425 nM	–	–
–	Cc1c(Cc2cccc(NS(N)(=O)=O)c2F)c(=O)oc2cc(OC(=O)N(C)C)c(F)cc12 [Compound 1j-1-5-1, Dimethylcarbamic acid 3-{2-fluoro-3-(aminosulfonyl)aminobenzyl}-6-fluoro-4-methyl-2-oxo-2H-1-benzopyran-7-yl ester]	0.93 nM	–	590 nM	–
–	CNS(=O)(=O)Nc1cccc(Cc2c(C)c3ccc(Oc4nccs4)cc3oc2=O)c1F [Compound 1j-3-4-2, 3-{2-Fluoro-3-(methylaminosulfonyl)aminobenzyl}-4-methyl-7-(thiazol-2-yloxy)-2-oxo-2H-1-benzopyran]	1.84 nM	267 nM	–	–
–	CNS(=O)(=O)Nc1cccc(Cc2c(C)c3ccc(Oc4ncccn4)cc3oc2=O)c1F [Compound 1j-2-4-2Na, 3-{2-fluoro-3-(methylaminosulfonyl)aminobenzyl}-4-methyl-7-(pyrimidin-2-yloxy)-2-oxo-2H-1-benzopyran sodium salt]	–	–	–	type II collagen-induced arthritis (arthritis score) compared to the control group [1]: suppressed; type II collagen-induced arthritis (arthritis score), dose dependence [1]: dose-dependently suppressed
1450 nM	CNS(=O)(=O)Nc1cc(Cc2c(C)c3cc(Cl)c(Oc4ncccn4)cc3oc2=O)ccn1 [Compound 1j-2-12-2, 3-{2-(Methylaminosulfonyl)aminopyridin-4-ylmethyl}-4-methyl-7-(pyrimidin-2-yloxy)-6-chloro-2-oxo-2H-1-benzopyran]	–	–	–	–
–	CNS(=O)(=O)Nc1cccc(Cc2c(CF)c3ccc(OC(=O)N(C)C)cc3oc2=O)c1F [Compound 1j-1-4-2F, Dimethylcarbamic acid 3-(3-methylaminosulfonylamino-2-fluoro-benzyl)-4-fluoromethyl-2-oxo-2H-1-benzopyran-7-yl ester]	–	–	60 nM	–
–	CNS(=O)(=O)Nc1cc(Cc2c(C)c3cc(Cl)c(OC(=O)N(C)C)cc3oc2=O)ccn1 [Compound 1j-1-12-2, Dimethylcarbamic acid 4-methyl-3-{2-(methylaminosulfonyl)aminopyridin-4-ylmethyl}-6-chloro-2-oxo-2H-1-benzopyran-7-yl ester]	–	1100 nM	–	–
530 nM	CNS(=O)(=O)Nc1cccc(Cc2c(CF)c3ccc(Oc4ncccn4)cc3oc2=O)c1F [Compound 1j-2-4-2F, 3-{2-Fluoro-3-(methylaminosulfonyl)aminobenzyl}-4-fluoromethyl-7-(pyrimidin-2-yloxy)-2-oxo-2H-1-benzopyran]	9.14 nM	–	–	–
–	CNS(=O)(=O)Nc1cccc(Cc2c(C)c3cc(C)c(OC(=O)N(C)C)cc3oc2=O)c1 [Compound 1j-1-8-2, Dimethylcarbamic acid 6-methyl-4-methyl-3-{3-(methylaminosulfonyl)aminobenzyl}-2-oxo-2H-1-benzopyran-7-yl ester]	–	–	240 nM	–
–	CNS(=O)(=O)Nc1cccc(Cc2c(C)c3cc(I)c(OC(=O)N(C)C)cc3oc2=O)c1 [Compound 1j-1-7-2, Dimethylcarbamic acid 6-iodo-4-methyl-3-{3-(methylaminosulfonyl)aminobenzyl}-2-oxo-2H-1-benzopyran-7-yl ester]	–	–	27 nM	–

Structure (SMILES)	EC50 (p27 protein; Table 2)	IC50 (TNF-α)	EC50 (p27 protein; Table 1-2)	EC50 (p27 protein; Table 1-1)	further results
CNS(=O)(=O)Nc1cccc(Cc2c(C)c3ccc(Oc4ncccn4)cc3oc2=O)c1F [Compound 1j-2-4-2, 3-{2-Fluoro-3-(methylaminosulfonyl)aminobenzyl}-4-methyl-7-(pyrimidin-2-yloxy)-2-oxo-2H-1-benzopyran]	730 nM	15.3 nM	–	–	–
